In this test the target is T1, Adenosine 5'-phosphosulfate reductase (Mycobacterium tuberculosis (strain CDC 1551 / Oshkosh), UniProt P9WIK2).
T1 sequence (P9WIK2 whole entry): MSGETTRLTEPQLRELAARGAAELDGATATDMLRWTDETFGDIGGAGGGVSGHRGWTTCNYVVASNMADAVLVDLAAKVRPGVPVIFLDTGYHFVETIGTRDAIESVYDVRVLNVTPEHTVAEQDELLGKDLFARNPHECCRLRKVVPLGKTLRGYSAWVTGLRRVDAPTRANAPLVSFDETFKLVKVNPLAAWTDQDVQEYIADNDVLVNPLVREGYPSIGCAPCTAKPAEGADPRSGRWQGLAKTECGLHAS
Briefly: Determination of Dissociation Constant (Kd). To be noted: pH 7.5; 30 °C. As for the experimental part: Values of Ki were determined from the dependence of the observed rate constant (kobs) on inhibitor concentration. […] A range of inhibitor concentrations was employed from at least 5-fold below to 10-fold above the inhibition constant. Nonlinear least-squares fits of the equation for competitive inhibition gave excellent fits in all cases, and the standard error was typically less than 15%.

Two compounds from BindingDB's records for doi:10.1021/jm800571m (The Scripps Research Institute, 2008) can be followed below.

The structures appear in SMILES notation.

In turn, `O=C(O)CSc1nnc2c3ccccc3c3ccccc3c2n1` [2-(1,2,4-triazatriphenylen-3-ylsulfanyl)acetic acid] registered a Kd of 46.8 µM.
With `CC(=O)[C@H]1CC[C@@H]2[C@]1(C)CC=C1[C@]23C=C[C@]2(C[C@@H](O)CC[C@]12C)C(C(=O)O)C3C(=O)O` (stereo partly drawn) [(1R,2R,5S,6S,10S,13S,15R)-5-acetyl-13-hydroxy-6,10-dimethylpentacyclo[13.2.2.0^{1,9}.0^{2,6}.0^{10,15}]nonadeca-8,18-diene-16,17-dicarboxylic acid] the figure was 127 µM.

What is called Kd is the constant that tells how readily two partners part at equilibrium. Read a high Kd as a looser complex.
